Literature values, collected in patent publication US8809393B2, “Injectable preparations of diclofenac and its pharmaceutically acceptable salts” (Troikaa Pharmaceuticals Ltd, priority 2005, dated 2014).

Test system: erythrocytes
Settings: aqueous solution of 2% propylene glycol iso-osmotic with serum, in 45 min

## CC(O)CO (stereo not shown) [propylene glycol]
  haemolysis of erythrocytes: 100%
